Values of other authors in patent US20250057829A1, “INHIBITORS OF TRPC6 FOR TREATING FOCAL SEGMENTAL GLOMERULOSCLEROSIS” (Boehringer Ingelheim International GmbH, priority 2023, published 2025).

Tested on: adults and children with steroid resistant FSGS
Conditions: week 8, follow-up vs. baseline; cited from earlier work

## mycophenolate mofetil/dexamethasone [MMF/DEX]
  reduction of UPCR: ~50%
